The record followed here is patent publication US20200392107A1, “CYCLIC AMINE DERIVATIVE AND MEDICAL USE THEREOF” (Toray Industries, Inc., priority 2018, published 2020).

The subject of assay [1] is DNFB-induced mouse allergic dermatitis model. Kind of assay: DNFB-induced mouse allergic dermatitis model. Format: in vivo. The following applies: 10 mg/kg orally one hour before induction; BALB/c mice; vs vehicle, P<0.05. The protocol: Using increase in the ear swelling rate as an index of exacerbation of symptoms, the effect of the cyclic amine derivative (I) or a pharmacologically acceptable salt thereof in a DNFB-induced mouse allergic dermatitis model was evaluated. The DNFB-induced mouse allergic dermatitis model was prepared by a partially modified method by Curzytek et al. (Pharmacological Reports, 2013, Vol. 65, p. 1237-1246).
BALB/c mice (female, 6 weeks old) (Charles River Laboratories Japan, Inc.) were used at 8 weeks old after preliminary breeding. To the back of the mice, 25 μL of a 0.5 v/v % DNFB solution dissolved in acetone:olive oil (4:1) was applied. The next day, the same operation was repeated to sensitize the mice. Four days after the sensitization, 10 μL each of a 0.2 v/v % DNFB solution dissolved in acetone:olive oil (4:1) was applied to both sides of the right auricle of the sensitized mice to induce inflammation.
One hour before induction, a test compound at a dose of 10 mg/kg was administered to the mice. As the test compound, the compound of Example 1, the compound of Example 4, and the compound of Example 9 were used. The compound of Example 1, the compound of Example 4, and the compound of Example 9 were respectively suspended in a 0.5 w/v % methylcellulose solution and orally administered. The group in which the compound of Example 1 was administered to mice was defined as the Example-1 compound administration group, the group in which the compound of Example 4 was administered was defined as the Example-4 compound administration group, and the group in which the compound of Example 9 was administered was defined as the Example-9 compound administration group. […]
The right ear thickness before application of the DNFB solution (before induction) on the induction day and the right ear thickness at the 24th hour after induction were measured with a digital micrometer (Mitutoyo Corporation). The swelling rate of the auricle was calculated by Formula (3) and used as an index of the drug efficacy evaluation: […]

Assay [2] deals with mouse alopecia areata model. Kind of assay: Mouse alopecia areata model. Format: in vivo. The following applies: 10 mg/kg orally once daily for 42 days, Day 49 to Day 90; C3H/HeJ mice. As to the method:
The effect of the cyclic amine derivative (I) or a pharmacologically acceptable salt thereof in a mouse alopecia areata model was evaluated using increase in the hair loss score as an index of worsening of symptoms. The mouse alopecia areata model was prepared by a partially modified method by Wang et al. (Journal of Investigative Dermatology, 2015, vol. 135, p. 2530-2532).
Female C3H/HeJ mice (CLEA Japan, Inc.) with spontaneous hair loss in 70% or more of the body surface were used as donor mice. The donor mice were euthanized by cervical dislocation, and then the groin, axilla, and auricular lymph nodes were aseptically removed. […]
On Day 49, photographs of the back and the abdomen of the mice were taken under isoflurane anesthesia. The status of hair loss was evaluated by a partially modified method by Alli et al. (Journal of Immunology, 2012, vol. 188, p. 477-486). In other words, the ratio of the area of hair loss site to the body surface area was scored in accordance with the criteria mentioned in Table 4, and regarded as the hair loss score. Specifically, the hair loss score was determined based on the numerical value of the ratio calculated from Formula (4): […]
Grouping was performed using the mouse hair loss score calculated on Day 49 as an index (the hair loss score on Day 49 (mean±standard error): 3.6±0.66). […]

Molecules are shown by their SMILES.

For `CC(=O)N1CCCC[C@@H]1C(=O)Nc1cc(Cl)c2c(c1)CCCN2Cc1ccc(C(F)(F)F)cc1` [Example 1, (R)-1-acetyl-N-(8-chloro-1-(4-(trifluoromethyl)benzyl)-1,2,3,4-tetrahydroquinolin-6-yl)piperidine-2-carboxamide], the “increase in the ear swelling rate (24th hour after induction)” value (“increase in the ear swelling rate” below) in assay [1] was “statistically significantly suppressed”.

Regarding `CC(=O)N1CCCC[C@@H]1C(=O)Nc1cc(Cl)c2c(c1)CCN2Cc1ccc(C(F)(F)F)cc1` [Example 4, (R)-1-acetyl-N-(7-chloro-1-(4-(trifluoromethyl)benzyl)indolin-5-yl)piperidine-2-carboxamide], the “increase in the ear swelling rate” value in assay [1] is “statistically significantly suppressed”. Besides, the “increase in the hair loss score (Day 91)” value in assay [2] is given as “suppressed”.

For the molecule `CC(=O)N1CCCC[C@@H]1C(=O)Nc1cc(Cl)c2c(c1)CCN2C[C@H]1CC[C@H](C(F)(F)F)CC1` [Example 9, (R)-1-acetyl-N-(7-chloro-1-((trans-4-(trifluoromethyl)cyclo-hexyl)methyl)indolin-5-yl)piperidine-2-carboxamide], the “increase in the ear swelling rate” value in assay [1] was “statistically significantly suppressed”.
